Tested on: patient with atopic dermatitis
Assay: Topical treatment of itching in atopic dermatitis
Assay type: in vivo
Settings: human, indomethacin cream 7.5 mg/g at 75 μg/cm^2
Method: An aqueous solution (10-100 μg/ml) of a compound of Formula (I) is applied topically to the skin lesions on the arms or legs of a patient with atopic dermatitis which had caused severe itching (ranked as “+++” by the patient prior to treatment). The drug solution is applied on five spots with a volume of about 50 μl per 10 cm^2, which was equivalent to a topical dose of […]. As a control, indomethacin cream (concentration of 7.5 mg/g) applied at a dose of 75 μg/cm^2 in the same manner. Itching intensity is evaluated immediately after treatment, 5 minutes after treatment and at hourly time points for several hours following treatment. […] Itch relief typically continues for several hours following treatment.

COc1ccc2c(c1)c(CC(=O)O)c(C)n2C(=O)c1ccc(Cl)cc1 [indomethecin, indomethacin]
Effect on itch (control): reduces but fails to eliminate itch
